Measured values published in paper PMC7830924, “Discovery of Natural Inhibitors of Cholinesterases from Hydrangea: In Vitro and In Silico Approaches” (Nutrients, 2021).

Columns and labels:
AChE = target: T1, AChE (Homo sapiens, UniProt P22303); assay: biochemical; details: for AChE Inhibition Type: determined by Dixon and Lineweaver–Burk plots; for IC50: mean ± S.D. of triplicate experiments, substrate ACh iodide; for Ki: obtained by Dixon plot
T1 construct: purchased Sigma-Aldrich
Description: (§1) Cholinesterases, trypsin, chymotrypsin, elastase and BACE1, assays were performed according to the previous methods. AChE, BChE, trypsin, chymotrypsin and elastase were assayed according to the manual depicted in the reference using ACh iodide, butyrylthiocholine chloride, N-benzoyl-L-Arg-pNA, N-benzoyl-L-Tyr-pNA and N-succinyl-Ala-Ala-Ala-pNA as substrates, respectively. BACE1 assay was achieved using a Rh-[…]-Quencher as a substrate. […] The inhibitory constant (Ki) was obtained by Dixon plot, and Vmax and Km were defined by Lineweaver–Burk plots. These kinetic parameters were calculated using the SigmaPlot™ (version 12.3, Systat Software, Inc., San Jose, CA, USA).

BChE = target: T2, BChE (Homo sapiens, UniProt P06276); assay: BChE inhibition assay and kinetic study; type: biochemical; details: for BChE Inhibition Type: determined by Dixon and Lineweaver–Burk plots; for IC50: mean ± S.D. of triplicate experiments, substrate butyrylthiocholine chloride; for Ki: obtained by Dixon plot
T2 construct: purchased Sigma-Aldrich
T2 sequence (P06276 29-602): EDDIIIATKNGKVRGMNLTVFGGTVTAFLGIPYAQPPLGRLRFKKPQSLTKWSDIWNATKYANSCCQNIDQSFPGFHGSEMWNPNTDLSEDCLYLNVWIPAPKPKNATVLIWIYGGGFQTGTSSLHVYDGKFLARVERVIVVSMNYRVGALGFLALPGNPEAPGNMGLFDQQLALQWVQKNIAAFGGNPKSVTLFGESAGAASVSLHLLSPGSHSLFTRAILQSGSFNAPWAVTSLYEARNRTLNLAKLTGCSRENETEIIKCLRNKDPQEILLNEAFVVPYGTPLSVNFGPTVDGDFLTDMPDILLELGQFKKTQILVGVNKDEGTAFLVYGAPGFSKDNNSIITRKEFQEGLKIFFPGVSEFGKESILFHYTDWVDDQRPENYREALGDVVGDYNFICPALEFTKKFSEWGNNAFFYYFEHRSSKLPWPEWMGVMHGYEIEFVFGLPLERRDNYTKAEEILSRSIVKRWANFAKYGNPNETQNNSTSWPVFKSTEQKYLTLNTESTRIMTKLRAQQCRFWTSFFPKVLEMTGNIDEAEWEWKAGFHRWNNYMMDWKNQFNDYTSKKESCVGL
Description: as §1

Trypsin = Trypsin inhibition assay (enzyme selectivity); type: biochemical; details: mean ± SD of triplicate
Description: as §1

Elastase = Elastase inhibition assay (enzyme selectivity); type: biochemical; details: mean ± SD of triplicate
Description: as §1

Chymotrypsin = tested on: T3, Chymotrypsin; assay: Chymotrypsin inhibition assay (enzyme selectivity); type: biochemical; details: mean ± SD of triplicate
T3 construct: purchased Sigma-Aldrich
Description: as §1

BACE1 = tested on: T4, BACE1; assay: BACE1 FRET assay (enzyme selectivity); type: biochemical; details: mean ± SD of triplicate
T4 construct: purchased Pan Vera
Description: A beta-site APP cleaving enzyme 1 (BACE1) fluorescence resonance energy transfer (FRET) assay kit was purchased from Pan Vera (Madison, WI, USA).
as §1

T1 sequence (P22303 32-614): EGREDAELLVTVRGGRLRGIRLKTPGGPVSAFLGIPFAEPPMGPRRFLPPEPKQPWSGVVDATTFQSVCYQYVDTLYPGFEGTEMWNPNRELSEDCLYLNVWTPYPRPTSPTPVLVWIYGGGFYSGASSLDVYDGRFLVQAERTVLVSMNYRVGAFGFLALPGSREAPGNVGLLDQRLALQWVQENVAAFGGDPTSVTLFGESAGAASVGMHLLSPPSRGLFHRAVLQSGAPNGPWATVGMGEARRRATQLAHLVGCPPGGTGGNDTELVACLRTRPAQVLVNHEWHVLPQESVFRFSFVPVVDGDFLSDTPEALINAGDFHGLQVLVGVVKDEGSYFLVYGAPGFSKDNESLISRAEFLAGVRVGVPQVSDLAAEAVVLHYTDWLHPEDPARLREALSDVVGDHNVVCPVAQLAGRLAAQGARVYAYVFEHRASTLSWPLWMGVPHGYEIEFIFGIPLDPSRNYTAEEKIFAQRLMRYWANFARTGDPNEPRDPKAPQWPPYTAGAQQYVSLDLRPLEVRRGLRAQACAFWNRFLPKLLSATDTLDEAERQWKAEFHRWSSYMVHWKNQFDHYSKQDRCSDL

## CC(=O)OC[C@H]1O[C@@H](Oc2cccc3c2C(=O)O[C@@H](c2ccc(OC(C)=O)cc2)C3)[C@H](OC(C)=O)[C@@H](OC(C)=O)[C@@H]1OC(C)=O [HGP, hydrangenol 8-O-glucoside pentaacetate]
AChE
  AChE Inhibition Type: Non-competitive
  IC50: 22.7 ± 1.63 µM
  Ki: 36.1 µM
BChE
  BChE Inhibition Type: Non-competitive
  IC50: 41 ± 3.03 µM
  Ki: 44.9 µM
Trypsin; compound 50 µM
  Inhibitory activity (%) against Trypsin: 1.26 ± 3.36%
Trypsin; compound 100 µM
  Inhibitory activity (%) against Trypsin: 3.12 ± 1.69%
Elastase; compound 50 µM
  Inhibitory activity (%) against Elastase: 3.77 ± 1.66%
Elastase; compound 100 µM
  Inhibitory activity (%) against Elastase: 1.47 ± 1.31%
Chymotrypsin; compound 50 µM
  Inhibitory activity (%) against Chymotrypsin: 7.16 ± 3.38%
Chymotrypsin; compound 100 µM
  Inhibitory activity (%) against Chymotrypsin: 5.15 ± 3.70%
BACE1; compound 50 µM
  Inhibitory activity (%) against BACE1: 20.02 ± 0.52%
BACE1; compound 100 µM
  Inhibitory activity (%) against BACE1: 25.21 ± 1.60%

## O=C1OC(c2ccc(O)cc2)Cc2cc(O)cc(O)c21 (centres unmarked) [TC, thunberginol C]
AChE
  AChE Inhibition Type: Non-competitive
  IC50: 42 ± 1.06 µM
  Ki: 45.6 µM
BChE
  BChE Inhibition Type: Non-competitive
  IC50: 42.4 ± 3.67 µM
  Ki: 49.2 µM
Trypsin; compound 50 µM
  Inhibitory activity (%) against Trypsin: −0.27 ± 1.51%
Trypsin; compound 100 µM
  Inhibitory activity (%) against Trypsin: 0.07 ± 2.00%
Elastase; compound 50 µM
  Inhibitory activity (%) against Elastase: 1.89 ± 1.09%
Elastase; compound 100 µM
  Inhibitory activity (%) against Elastase: 0.42 ± 0.36%
Chymotrypsin; compound 50 µM
  Inhibitory activity (%) against Chymotrypsin: 6.04 ± 2.42%
Chymotrypsin; compound 100 µM
  Inhibitory activity (%) against Chymotrypsin: 8.50 ± 1.40%
BACE1; compound 50 µM
  Inhibitory activity (%) against BACE1: 25.81 ± 3.11%
BACE1; compound 100 µM
  Inhibitory activity (%) against BACE1: 28.68 ± 1.87%

## COc1ccc2c3c1O[C@H]1C[C@@H](O)C=C[C@@]31CCN(C)C2 [Galantamine, reference compound]
BChE
  BChE Inhibition Type: Competitive
